Laboratory results: the supplement of paper PMC10307832

Legend:
Assay in all cases: relative viability (nuclei count vs DMSO), 5 days (fraction); higher = more cells survive
[1] = compound: Cc1cc([C@@H](C)Nc2ccccc2C(=O)O)c2nc(N3CCOCC3)cc(=O)n2c1 [AZD6482] + Cc1nc(Nc2ncc(C(=O)Nc3c(C)cccc3Cl)s2)cc(N2CCN(CCO)CC2)n1 [Dasatinib] (partner 0.075 µM)
Summary of the method: (§1)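 After 5 days of treatment, lung cancer cells in 1536-well plates were fixed and stained in a single step (final 0.05% Triton X-100, 1% formaldehyde, 1 ug/ml Hoechst) and their nuclei counted on 4× images. Treatment had been applied by pin tool the day after seeding as one drug alone or as a fixed anchor-drug dose with five library-drug doses (not always all listed) in √10 steps. Relative viability is the nuclei count of treated wells divided by that of vehicle wells, and values are medians of duplicate plates.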

[2] = compound: COc1cc2nc(N3CCCN(C)CC3)nc(NC3CCN(Cc4ccccc4)CC3)c2cc1OC + Nc1ncn([C@H]2C[C@H](O)[C@@H](CO)O2)c(=O)n1 [Decitabine] (partner 2 µM)
Summary of the method: as §1

[3] = compound: Cc1cc([C@@H](C)Nc2ccccc2C(=O)O)c2nc(N3CCOCC3)cc(=O)n2c1 [AZD6482] + CCNC(=O)c1noc(-c2cc(C(C)C)c(O)cc2O)c1-c1ccc(CN2CCOCC2)cc1 [Luminespib] (partner 0.01 µM)
Summary of the method: as §1

[4] = compound: COc1cc2nc(N3CCCN(C)CC3)nc(NC3CCN(Cc4ccccc4)CC3)c2cc1OC + CC(C)C[C@H](NC(=O)[C@H](Cc1ccccc1)NC(=O)c1cnccn1)B(O)O [Bortezomib] (partner 0.002 µM)
Summary of the method: as §1

Cell Line | relative viability ([1]; first compound 0.08 µM) | relative viability ([1]; first compound 0.253 µM) | relative viability ([1]; first compound 0.8 µM) | relative viability ([1]; first compound 2.53 µM) | relative viability ([1]; first compound 8 µM) | relative viability ([2]; first compound 0.2 µM) | relative viability ([2]; first compound 0.6325 µM) | relative viability ([2]; first compound 2 µM) | relative viability ([2]; first compound 6.325 µM) | relative viability ([3]; first compound 0.08 µM) | relative viability ([3]; first compound 0.253 µM) | relative viability ([3]; first compound 0.8 µM) | relative viability ([3]; first compound 2.53 µM) | relative viability ([3]; first compound 8 µM) | relative viability ([4]; first compound 0.2 µM) | relative viability ([4]; first compound 0.6325 µM) | relative viability ([4]; first compound 2 µM) | relative viability ([4]; first compound 6.325 µM)
LC-2-ad | 0.431 | 0.357 | 0.537 | 0.306 | 0.282 | 0.764 | 0.741 | 0.734 | 0.856 | 0.976 | 0.954 | 1.28 | 0.914 | 1.12 | 1.03 | 1.01 | 1.16 | 1.04
LCLC-97TM1 | 0.87 | 0.711 | 0.869 | 0.611 | 0.486 | 0.244 | 0.202 | 0.225 | 0.27 | 0.77 | 0.803 | 0.66 | 0.327 | 0.282 | 0.439 | 0.939 | 0.697 | 0.517
LCLC-103H | 0.361 | 0.359 | 0.224 | 0.251 | 0.225 | 0.74 | 0.794 | 0.777 | 0.701 | 0.741 | 0.751 | 0.804 | 0.602 | 0.64 | 1.18 | 1.09 | 1.31 | 1.01
LOU-NH91 | 0.394 | 0.486 | 0.577 | 0.406 | 0.376 | 0.779 | 0.845 | 0.853 | 0.808 | 0.326 | 0.293 | 0.343 | 0.27 | 0.335 | 0.481 | 0.552 | 0.465 | 0.517
LU99A | 0.562 | 0.522 | 0.397 | 0.389 | 0.407 | 0.863 | 0.857 | 0.893 | 0.811 | 0.323 | 0.26 | 0.334 | 0.237 | 0.238 | 1.26 | 1.08 | 1.22 | 1.01
LXF-289 | 0.188 | 0.15 | 0.193 | 0.106 | 0.123 | 0.396 | 0.365 | 0.418 | 0.393 | 0.688 | 0.655 | 0.724 | 0.409 | 0.379 | 0.98 | 0.973 | 1.03 | 0.985
NCI-H23 | 0.746 | 0.952 | 0.511 | 0.572 | 0.368 | 0.307 | 0.334 | 0.316 | 0.322 | 0.235 |  | 0.249 | 0.207 | 0.201 | 1 | 0.943 | 1.2 | 0.918
NCI-H322M | 0.261 | 0.249 | 0.27 | 0.207 | 0.242 | 0.717 | 0.708 | 0.768 | 0.708 | 0.776 | 0.472 | 0.783 | 0.465 | 0.496 | 1.31 | 1.28 | 1.12 | 1.2
NCI-H441 | 0.568 | 0.592 | 0.704 |  | 0.502 | 0.239 | 0.225 | 0.3 | 0.206 | 0.389 | 0.375 | 0.3 |  | 0.262 | 0.454 |  | 0.519 | 0.36
